Measured values published in patent publication US6833372B2, “Non-peptide GnRH agents, Pharmaceutical compositions, and methods for their use” (Pfizer, Inc., priority 2002, dated 2004).
Values after ≈ are worked out from the molar mass of the structure shown. Where two headings read alike, the source gives them in different places.

Assays:
rat GnRH receptor = biological target: T1, rat GnRH receptor (Rattus norvegicus, UniProt P30969); test: Radioligand binding: inhibition of 125I-GnRH-A binding to rat GnRH receptor (rat pituitary membranes); conditions: read-out: Ki (nM), Inhibition Binding of 125I-GnRH-A to GnRH Receptors
T1 construct: or rat pituitaries (Pel Freez Biologicals, Rogers, Ark.) were homogenized; tissue Pel Freez Biologicals; host or cells: rat pituitaries (membrane preparation)
T1 sequence (P30969 1-327): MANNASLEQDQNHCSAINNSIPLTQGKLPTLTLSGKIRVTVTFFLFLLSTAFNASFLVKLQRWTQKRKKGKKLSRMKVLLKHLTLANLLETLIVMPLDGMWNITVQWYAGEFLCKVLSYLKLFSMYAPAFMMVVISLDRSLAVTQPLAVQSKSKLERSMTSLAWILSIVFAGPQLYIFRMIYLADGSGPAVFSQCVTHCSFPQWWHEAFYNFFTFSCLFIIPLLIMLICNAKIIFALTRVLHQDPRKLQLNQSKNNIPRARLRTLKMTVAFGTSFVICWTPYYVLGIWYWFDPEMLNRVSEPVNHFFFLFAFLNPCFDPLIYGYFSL
Procedure, shortened: (§1)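 Membranes from rat pituitaries, or HEK 293 cells stably expressing mouse or human receptor, incubated 1 hour at room temperature with ~0.04-0.06 nM radioligand (HEPES pH 7.4, EDTA, MgCl2, BSA) and competitor at 0.1-10,000 nM. Bound ligand collected by GF/C filtration and counted; Ki derived from IC50 by Cheng-Prusoff.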

[1] = Solubility at pH2 and pH6; type: physicochemical
human GnRH receptors = biological target: T2, human GnRH receptors (Homo sapiens, UniProt P30968); test: Radioligand binding: inhibition of 125I-GnRH-A binding to human GnRH receptor membranes; conditions: HEK 293 cell membranes
T2 construct: expressed in transfected cells; host or cells: HEK 293 cells, stably transfected; membranes
T2 sequence (P30968 1-328): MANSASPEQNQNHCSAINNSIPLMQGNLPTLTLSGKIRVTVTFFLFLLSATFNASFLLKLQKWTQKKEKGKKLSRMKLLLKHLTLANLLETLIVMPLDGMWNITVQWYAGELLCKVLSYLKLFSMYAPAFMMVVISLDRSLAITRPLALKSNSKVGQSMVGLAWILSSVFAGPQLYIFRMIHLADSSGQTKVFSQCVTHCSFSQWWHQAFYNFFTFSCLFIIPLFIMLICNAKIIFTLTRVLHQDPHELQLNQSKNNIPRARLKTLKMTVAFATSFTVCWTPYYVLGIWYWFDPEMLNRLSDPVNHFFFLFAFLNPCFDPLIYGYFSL
Procedure, shortened: as §1

[2] = pH 6, aqueous buffer, pH6, read-out: Solubility μg/ml pH6

Row | Structure (SMILES) | Ki (rat GnRH receptor) [nM] | solubility ([1]; pH 2, simulated gastric fluid, pH2, read-out: Solubility μg/ml pH2) [µg/mL] | solubility [1, 2] [µg/mL] | Ki (human GnRH receptors) [nM]
1 | COc1nc(OC)c(NC(=O)c2ccc(Cc3cc4c(cc3C)C(C)(C)OC4(C)C)o2)c(OC)n1 [Example A1, 5-(1,1,3,3,6-Pentamethyl-1,3-dihydro-isobenzofuran-5-ylmethyl)-furan-2-carboxylic Acid (2,4,6-trimethoxy-pyrimidin-5-yl)-amide] | 3.8 | > 12 | > 12 | 4.6
2 | COc1nc(OCCO)nc(OC)c1NC(=O)c1ccc(Cc2cc3c(cc2C)C(C)(C)OC3(C)C)o1 [Example A3, 5-(1,1,3,3,6-Pentamethyl-1,3-dihydro-isobenzofuran-5-ylmethyl)-furan-2-carboxylic acid [2-(2-hydroxy-ethoxy)-4,6-dimethoxy-pyrimidin-5-yl]-amide] | 5.4 | – | > 15 | 7.7
3 | COc1nc(N(C)C)nc(OC)c1NC(=O)c1ccc(Cc2cc3c(cc2C)C(C)(C)CCC3(C)C)o1 [Example B2, 5-(3,5,5,8,8-Pentamethyl-5,6,7,8-tetrahydro-naphthalen-2-ylmethyl)-furan-2-carboxylic Acid (dimethylamino-dimethoxy-pyrimidin-5-yl)-amide] | 11 | – | 0.4 (≈ 0.79 µM) | 1.8
4 | COc1nc(OC)c(NC(=O)c2ccc(Cc3cc4c(cc3C)C(C)(C)CCC4(C)C)o2)c(OC)n1 [Example C1, 5-(3,5,5,8,8-Pentamethyl-5,6,7,8-tetrahydro-naphthalen-2-ylmethyl)-furan-2-carboxylic Acid (2,4,6-trimethoxy-pyrimidin-5-yl)-amide] | 0.7 | – | 1 (≈ 2.03 µM) | 0.55
